In PMC10253456, “Investigating the Contribution of Major Drug-Metabolising Enzymes to Possum-Specific Fertility Control” (International Journal of Molecular Sciences, 2023):
Counter-ions that a name gives are not always drawn. Like-named read-outs stand apart in the source and are kept apart here.

What was measured:
[1] = system: CYP3A; test: CYP3A catalytic activity (erythromycin N-demethylation) in mouse liver microsomes; details: for Percent control catalytic activity at estimated IC50 / Percent control catalytic activity at estimated 2-fold IC50: mouse liver microsomes, initial screen n=1; for Percent control catalytic activity at estimated IC50: compounds without reported IC50 at 1 µM; for Percent control catalytic activity at estimated 2-fold IC50: compounds without reported IC50 at 5 µM; for % of control (catalytic activity at 2-fold IC50) / Catalytic activity at 2-fold IC50 / % of control (catalytic activity at IC50): mouse; for % of control (catalytic activity at 2-fold IC50) / Catalytic activity at 2-fold IC50: compound at estimated 2-fold IC50 (5 µM where none reported); for % of control (catalytic activity at IC50): compound at estimated IC50 (1 µM where none reported)
Method: (§1) Possums were collected from the Otago Peninsula (Dunedin) and the Okuti Valley, Banks Peninsula (Christchurch) in New Zealand in collaboration with the Otago Peninsula Biodiversity Group and Manaaki Whenua-Landcare Research, respectively. […] Possums were caged and humanely killed by a blow to the head, and the livers were harvested, snap-frozen in liquid nitrogen, and stored in a freezer at −80 °C until the preparation of microsomal fractions. […] Mice were euthanised by carbon dioxide inhalation and the livers were removed and microsomes prepared. […] The livers from avian species (mallards and a swan) were kindly donated by a local bird hunting group based in Dunedin, New Zealand. The livers from avian species were treated similarly to those mentioned above for the possum samples.
(§2) Microsomal preparation was carried out as previously described [76]. […] All procedures were performed at 0–4 °C. The liver samples were minced and homogenised in Buffer A (0.1 M Tris, 0.1 M potassium chloride, 1 mM EDTA, and 20 μM butylated hydroxytoluene, at pH = 7.4) using the Teflon-glass homogeniser (5–6 vertical passes). The samples were centrifuged at 10,000× g for 20 min. The supernatant was then transferred into another set of centrifuge tubes and spun at 100,000× g for 60 min. The pellet was resuspended in Buffer B (0.1 M potassium pyrophosphate, 1 mM EDTA, and 20 μM butylated hydroxytoluene, at pH = 7.4), homogenised, and recentrifuged at 100,000× g for 60 min. Finally, the pellet was homogenised in 1–2 mL of Buffer C (10 mM Tris-HCl, 1 mM EDTA, and 4% glycerol (v/v)), and stored at −80 °C until use. The protein concentration of the microsomes was determined using the bicinchoninic acid (BCA) method [77].
(§3) CYP3A catalytic activity was determined using the erythromycin N-demethylation activity assay, as described [78]. The reaction mixture (final volume of 1 mL and final protein concentration of 1 mg) contained 500 µL of microsomes in 0.1 M phosphate buffer (pH 7.4) and 400 µL of erythromycin buffer (0.45 mM), and 50 µL of the test compound was pre-warmed at 37 °C for 2 min. The reaction was initiated with 50 µL of 2.5 mM nicotinamide adenine dinucleotide phosphate (NADP^+) and incubated for 30 min at 37 °C. […] The tubes were vortexed and left for 5 min (at room temperature), and then 330 µL of saturated barium hydroxide was added. The tubes were further vortexed and left for 5 min (at room temperature). The tubes were then centrifuged at 1800× g for 10 min. To 830 µL of the supernatant, 330 µL of Nash reagent (30% (w/v) ammonium acetate, 0.4% (v/v) acetylacetone) was added and further incubated for 30 min at 60 °C. The blank tube contained 330 µL of Nash reagent and 830 µL of Milli-Q water. […] The CYP3A activities were determined in nmol/mg/min using standard curve data. Results presented are the mean ± SEM of 3 independent experiments performed in duplicate unless otherwise stated.

[2] = system: CYP3A; test: CYP3A catalytic activity (erythromycin N-demethylation) in possum liver microsomes; details: for Percent control catalytic activity at estimated IC50 / Percent control catalytic activity at estimated 2-fold IC50: possum liver microsomes, initial screen n=1; for Percent control catalytic activity at estimated IC50: compounds without reported IC50 at 1 µM; for Percent control catalytic activity at estimated 2-fold IC50: compounds without reported IC50 at 5 µM; for % of control (catalytic activity at 2-fold IC50) / Catalytic activity at 2-fold IC50 / % of control (catalytic activity at IC50): possum; for % of control (catalytic activity at 2-fold IC50) / Catalytic activity at 2-fold IC50: compound at estimated 2-fold IC50 (5 µM where none reported); for % of control (catalytic activity at IC50): compound at estimated IC50 (1 µM where none reported)
Method: as §1, §2, §3

[3] = system: CYP3A; details: avian
Method: as §1, §2, §3

[4] = compound at estimated 2-fold IC50 (5 µM where none reported)

Row | Structure (SMILES) | Percent control catalytic activity at estimated IC50 [1] | Percent control catalytic activity at estimated 2-fold IC50 [1] | Percent control catalytic activity at estimated IC50 [2] | Percent control catalytic activity at estimated 2-fold IC50 [2] | further results
1 | Cl.O=C(O)/C=C/c1ccc(Cn2ccnc2)cc1 [Ozagrel HCl] | 92 percent control | 85 percent control | 121 percent control | 95 percent control | 
2 | CC(=O)O[C@H]1CC[C@@]2(C)C(=CC[C@@H]3[C@@H]2CC[C@]2(C)C(c4cccnc4)=CC[C@@H]32)C1 [Abiraterone Acetate] | 85 percent control | 89 percent control | 128 percent control | 110 percent control | 
3 | C/C1=C/CC[C@H](C)C(=O)C[C@@H](C(C)C)C(=O)C1 [Curdione] | 143 percent control | 134 percent control | 92 percent control | 103 percent control | % of control (catalytic activity at 2-fold IC50) [1]: 94 % of control; Catalytic activity at 2-fold IC50 [1]: 0.38 ± 0.05 nmol/mg/min; % of control (catalytic activity at IC50) [1]: 114 % of control; % of control (catalytic activity at 2-fold IC50) [2]: 99 % of control; Catalytic activity at 2-fold IC50 [2]: 0.37 ± 0.03 nmol/mg/min; % of control (catalytic activity at IC50) [2]: 91 % of control; % of control (catalytic activity at 2-fold IC50) [3, 4]: 99 % of control; Catalytic activity at 2-fold IC50 [3, 4]: 0.41 ± 0.04 nmol/mg/min; % of control (catalytic activity at IC50) ([3]; compound at estimated IC50 (1 µM where none reported)): 97 % of control
4 | O=C1C[C@@H](c2ccc(O)cc2)Oc2cc(O)cc(O)c21 [Naringenin] | 71 percent control |  | 84 percent control |  | % of control (catalytic activity at 2-fold IC50) [1]: 240 % of control; Catalytic activity at 2-fold IC50 [1]: 1.09 ± 0.04 nmol/mg/min; % of control (catalytic activity at 2-fold IC50) [2]: 175 % of control; Catalytic activity at 2-fold IC50 [2]: 0.56 ± 0.02 nmol/mg/min
5 | CC(C)c1cc(C(C)C)c(CC(=O)NS(=O)(=O)Oc2c(C(C)C)cccc2C(C)C)c(C(C)C)c1 [Avasimibe] | 91 percent control | 92 percent control |  |  | 
6 | CC(C)(C)C(O)/C=C/c1ccc2c(c1)OCO2 (stereo not shown) [Stiripentol] | 119 percent control | 102 percent control | 109 percent control | 105 percent control | 
7 | c1ccc2[nH]c(-c3cscn3)nc2c1 [Thiabendazole] | 85 percent control | 95 percent control | 94 percent control | 92 percent control | 
8 | O=C(O)c1ccc(-n2nc(-c3ccccc3O)nc2-c2ccccc2O)cc1 [Deferasirox] | 87 percent control |  | 93 percent control |  | 
9 | O=c1c(O)c(-c2ccccc2)oc2cc(O)cc(O)c12 [Galangin] | 131 percent control | 123 percent control | 115 percent control | 103 percent control | 
10 | Cc1ccc(-c2c(-c3nn(C)c4ncnc(N5CC[C@H](N6CCCCC6)C5)c34)cnn2C)cc1 [PF-4981517] | 101 percent control | 110 percent control | 98 percent control | 108 percent control | 
11 | C[C@@H]1O[C@@H](O[C@H]2[C@H](Oc3cc(O)c(C(=O)CCc4ccc(O)cc4)c(O)c3)O[C@H](CO)[C@@H](O)[C@@H]2O)[C@H](O)[C@H](O)[C@H]1O [Naringin Dihydrochalcone] | 92 percent control | 96 percent control | 111 percent control | 87 percent control | % of control (catalytic activity at 2-fold IC50) [1]: 102 % of control; Catalytic activity at 2-fold IC50 [1]: 0.54 ± 0.07 nmol/mg/min; % of control (catalytic activity at IC50) [1]: 97 % of control; % of control (catalytic activity at 2-fold IC50) [2]: 92 % of control; Catalytic activity at 2-fold IC50 [2]: 0.33 ± 0.02 nmol/mg/min; % of control (catalytic activity at IC50) [2]: 106 % of control
12 | CC12CC3CC(C)(C1)CC(N)(C3)C2 [Memantine HCl] | 104 percent control | 98 percent control | 117 percent control | 109 percent control | 
13 | COc1cc2c(=O)c3c(O)c([C@@H]4O[C@H](CO[C@@H]5OC[C@](O)(CO)[C@H]5O)[C@@H](O)[C@H](O)[C@H]4O)c(O)cc3oc2cc1O [Polygalaxanthone III] | 92 percent control | 94 percent control | 102 percent control | 108 percent control | 
14 | O=C1c2ccc(O)cc2C(=O)c2ccc(O)cc21 [2,6-Dihydroxyanthraquinone] | 106 percent control | 128 percent control | 97 percent control | 102 percent control | 
15 | COc1cc2c(cc1OC)[C@@H](Cc1ccc(Oc3cc(C[C@@H]4c5cc(OC)c(OC)cc5CCN4C)ccc3O)cc1)N(C)CC2 [Dauricine] | 113 percent control | 112 percent control | 108 percent control | 117 percent control | 
16 | O=C([O-])C(O)Cc1ccc(O)c(O)c1.[Na+] (stereo not shown) [Sodium Danshensu] | 98 percent control | 107 percent control | 116 percent control | 118 percent control | 
17 | O=c1cc(-c2ccc(O)cc2)oc2cc(O)cc(O)c12 [Apigenin] | 116 percent control | 106 percent control | 94 percent control | 121 percent control | 
18 | CC(C)(C)C(O)/C(=C\c1ccc(Cl)cc1)n1cncn1 (stereo not shown) [Uniconazole] | 67 percent control | 40 percent control | 82 percent control | 84 percent control | 
19 | O=[N+]([O-])c1cn(C(c2ccccc2)(c2ccccc2)c2ccccc2)cn1 [CDD3505] | 88 percent control | 89 percent control | 129 percent control | 145 percent control | 
20 | CC[C@@H]([C@H](C)O)n1ncn(-c2ccc(N3CCN(c4ccc(OC[C@@H]5CO[C@@](Cn6cncn6)(c6ccc(F)cc6F)C5)cc4)CC3)cc2)c1=O [Posaconazole] | 101 percent control | 74 percent control | 93 percent control | 92 percent control | 
21 | COc1c(OC)c2occc2c2oc(=O)ccc12 [Pimpinellin] | 171 percent control |  | 133 percent control |  | 
22 | O=C(O)[C@H](O)Cc1ccc(O)c(O)c1 [Danshensu] | 97 percent control |  | 113 percent control |  | 
23 | C=CCSCC=C [Diallyl sulfide] | 72 percent control | 84 percent control | 103 percent control | 96 percent control | 
24 | O=C(O)/C=C/c1ccc(Cn2ccnc2)cc1 [Ozagrel] | 93 percent control | 92 percent control | 97 percent control | 109 percent control | 
25 | CCc1ccc(CCOc2ccc(CC3SC(=O)NC3=O)cc2)nc1 (stereo not shown) [Pioglitazone HCl] | 98 percent control | 100 percent control | 99 percent control | 87 percent control | 
